Experimental findings from patent US20070282007A1, “TREATMENT OF PAIN DISORDERS WITH trans 4-(3,4-DICHLOROPHENYL)-1,2,3,4-TETRAHYDRO-1-NAPHTHALENAMINE AND ITS FORMAMIDE” (SEPRACOR INC., priority 2006, published 2007) are described below.

Each structure is given as a SMILES string.

The subject of test [1] is rats. Kind of test: Formalin paw test in the rat (late phase), flinches counted. The class given is in vivo. Here is the method: Rats were given an intraplantar injection of 5% formalin (50 μl) into the posterior left paw. […] The number of flinches was counted for 15 minutes, beginning 20 minutes after injection of formalin. Eight rats were studied per group. The test was performed blind. […] Data were analyzed by comparing treated groups with vehicle control using unpaired Mann-Whitney U tests.

Test [2] concerns Rat SNL Model. Kind of test: SNL model of neuropathic pain, mechanical hyperalgesia testing. Type of test: in vivo. The protocol:
(§1) The animals were anesthetized with isoflurane, the left L5 transverse process was removed, and the L5 and L6 spinal nerves were tightly ligated with 6-0 silk suture. The wound was then closed with internal sutures and external staples. Wound clips were removed 10-11 days following surgery.
Mechanical hyperalgesia testing: Baseline, post-injury and post-treatment values for […] mechanical sensitivity were evaluated using a Paw Pressure Analgesymeter (7200, Ugo Basile, Comerio, Italy) which generates a linearly increasing mechanical force. The mechanical nociceptive stimulus was applied to the plantar surface of the hind paws by a dome-shaped plastic tip placed between the 3rd and 4th metatarsus. […] Mechanical thresholds were defined as the force in grams at the first pain behavior, which includes paw withdrawal, struggle and/or vocalization. Paw pressure test was performed on each hind paw for each animal. The mean and standard error of the mean (SEM) were determined for each paw, in each treatment group. Mechanical hyperalgesia was evaluated 24 days post-surgery.
(§2) Ten rats were studied per group and the tests were performed blind. (1R,4S)-4-(3,4-dichlorophenyl)-1,2,3,4-tetrahydro-1-naphthalenamine (P) was evaluated at 3 doses (5, 10 and 15 mg/kg), administered orally and compared with a vehicle control group. Gabapentin (100 mg/kg) and duloxetine (30 mg/kg) administered orally under the same experimental conditions, were used as comparator substances. Mechanical allodynia and hyperalgesia testing were conducted at baseline and 1, 2 and 4 hours after test article administration.

In test [3] the test system is Rat SNL Model. Kind of test: SNL model of neuropathic pain, mechanical allodynia testing. The class given is in vivo. The protocol: as §1
Animals were placed on a perforated metallic platform and allowed to acclimate to their surroundings for a minimum of 30 minutes before testing. The mean and standard error of the mean (SEM) were determined for each animal in each treatment group. Since this stimulus is normally not considered painful, significant injury-induced increases in responsiveness in this test are interpreted as a measure of mechanical allodynia. Mechanical allodynia was evaluated 14 days post-surgery.
as §2

Test [4] relates to rats. Kind of test: Formalin test, second test with Automated Nociception Analyzer. Type of test: in vivo, rat. The conditions noted are these: automated detection; for Number of Flinches, Acute Phase (Mean ± SEM): 0-10 minutes after formalin; for Number of Flinches, Late Phase (Mean ± SEM): 10-60 minutes after formalin. The protocol: In a second test, flinching behaviors were measured for 90 minutes after formalin injection using an automated detection system. […] This device used a magnetic detection system to measure paw movements, called “flinches”. Small metal bands were attached to the left hind paw of rats just before placement into individual circular test chambers 30 minutes prior to formalin injection. […] In addition to duloxetine, morphine (6 mg/kg, subcutaneously) was used as a comparator substance. Animals were treated with morphine 30 minutes prior to the formalin injection. To initiate the experiment, the rats were injected with formalin subcutaneously on the dorsal surface of the left hind paw and placed in the test chambers. The instrument subsequently recorded rapid foot movements counted in one minute epochs.

The target of a further test is T1, M3 receptor (Cavia porcellus, UniProt H0W1Z3).
T1 construct: from tissue; host or cells: isolated guinea pig ileum
T1 sequence (H0W1Z3 1-590): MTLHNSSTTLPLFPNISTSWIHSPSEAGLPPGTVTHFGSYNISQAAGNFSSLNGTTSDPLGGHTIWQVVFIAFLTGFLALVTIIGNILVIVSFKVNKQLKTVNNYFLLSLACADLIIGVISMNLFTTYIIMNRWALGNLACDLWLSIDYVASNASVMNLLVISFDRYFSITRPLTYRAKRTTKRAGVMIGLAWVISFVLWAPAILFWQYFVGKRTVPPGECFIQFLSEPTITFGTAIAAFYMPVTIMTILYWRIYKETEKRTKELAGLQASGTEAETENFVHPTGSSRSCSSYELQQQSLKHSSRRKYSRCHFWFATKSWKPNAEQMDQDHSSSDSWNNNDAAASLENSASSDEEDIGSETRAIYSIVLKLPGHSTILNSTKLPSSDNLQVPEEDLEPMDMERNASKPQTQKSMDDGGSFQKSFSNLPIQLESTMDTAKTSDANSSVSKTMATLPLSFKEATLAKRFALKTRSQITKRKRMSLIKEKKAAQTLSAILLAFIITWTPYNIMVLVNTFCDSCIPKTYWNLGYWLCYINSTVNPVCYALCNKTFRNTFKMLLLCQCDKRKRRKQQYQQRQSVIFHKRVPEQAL
Kind of test: Carbachol-induced contraction of the isolated Guinea pig ileum. To be noted: reference antagonist.

The next test deals with Dopamine (DA) uptake (Rattus norvegicus, UniProt P23977). Briefly: biochemical.
Chain of Dopamine (DA) uptake (P23977 whole entry): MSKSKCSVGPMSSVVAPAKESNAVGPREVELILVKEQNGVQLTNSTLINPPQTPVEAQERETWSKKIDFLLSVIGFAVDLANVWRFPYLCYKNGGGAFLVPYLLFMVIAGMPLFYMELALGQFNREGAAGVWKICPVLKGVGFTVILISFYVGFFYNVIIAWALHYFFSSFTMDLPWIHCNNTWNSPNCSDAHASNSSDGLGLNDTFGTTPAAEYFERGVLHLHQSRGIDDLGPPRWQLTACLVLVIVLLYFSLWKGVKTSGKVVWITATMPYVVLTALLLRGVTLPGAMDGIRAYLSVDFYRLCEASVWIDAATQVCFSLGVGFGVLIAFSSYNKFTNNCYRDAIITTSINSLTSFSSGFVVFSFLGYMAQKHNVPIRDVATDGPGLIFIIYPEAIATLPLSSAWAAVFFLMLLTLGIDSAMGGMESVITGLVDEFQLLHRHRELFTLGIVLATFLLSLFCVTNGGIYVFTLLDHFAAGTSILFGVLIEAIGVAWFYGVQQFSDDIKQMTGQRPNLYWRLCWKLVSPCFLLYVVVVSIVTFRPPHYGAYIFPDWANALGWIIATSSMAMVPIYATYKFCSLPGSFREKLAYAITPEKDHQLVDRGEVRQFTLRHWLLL
Test [5] has as its target T2, Norepinephrine (NE) uptake (Rattus norvegicus, UniProt Q63380).
T2 construct: from tissue; host or cells: synaptosomes from rat hypothalamus
Briefly: Functional uptake of radiolabeled NE into synaptosomes from rat hypothalamus. Type of test: biochemical. Here is the method:
The 5-HT and NE assays were performed essentially as outlined in Perovic S. & Müller W. E. G., Arzneim.-Forsch.

The target in another test is T3, M5 (Homo sapiens, UniProt P08912).
T3 sequence (P08912 1-532): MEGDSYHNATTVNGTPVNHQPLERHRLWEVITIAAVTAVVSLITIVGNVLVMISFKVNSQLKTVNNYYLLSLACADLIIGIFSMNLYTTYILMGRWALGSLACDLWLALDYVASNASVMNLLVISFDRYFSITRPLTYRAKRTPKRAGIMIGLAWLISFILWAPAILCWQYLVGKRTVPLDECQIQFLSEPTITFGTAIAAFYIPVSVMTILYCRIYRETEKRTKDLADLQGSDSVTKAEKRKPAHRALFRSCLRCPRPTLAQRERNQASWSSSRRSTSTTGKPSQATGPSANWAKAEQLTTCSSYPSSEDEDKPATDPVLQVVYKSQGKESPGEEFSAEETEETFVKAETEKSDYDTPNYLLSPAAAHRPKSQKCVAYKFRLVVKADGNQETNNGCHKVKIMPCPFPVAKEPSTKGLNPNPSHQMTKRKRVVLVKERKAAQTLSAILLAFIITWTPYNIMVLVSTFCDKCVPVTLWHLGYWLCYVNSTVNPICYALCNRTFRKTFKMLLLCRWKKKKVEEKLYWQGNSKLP
Briefly: In vitro radioligand binding assay, M5. The conditions noted are these: read-out: Ki, M5.

Another test addresses Na^+ Channel Site 2. Briefly: In vitro radioligand binding assay, Na+ channel site 2.
The target in a further test is 5-HT1B (Homo sapiens, UniProt P28222). Briefly: In vitro radioligand binding assay, 5-HT1B.
Chain of 5-HT1B (P28222 whole entry, species assumed): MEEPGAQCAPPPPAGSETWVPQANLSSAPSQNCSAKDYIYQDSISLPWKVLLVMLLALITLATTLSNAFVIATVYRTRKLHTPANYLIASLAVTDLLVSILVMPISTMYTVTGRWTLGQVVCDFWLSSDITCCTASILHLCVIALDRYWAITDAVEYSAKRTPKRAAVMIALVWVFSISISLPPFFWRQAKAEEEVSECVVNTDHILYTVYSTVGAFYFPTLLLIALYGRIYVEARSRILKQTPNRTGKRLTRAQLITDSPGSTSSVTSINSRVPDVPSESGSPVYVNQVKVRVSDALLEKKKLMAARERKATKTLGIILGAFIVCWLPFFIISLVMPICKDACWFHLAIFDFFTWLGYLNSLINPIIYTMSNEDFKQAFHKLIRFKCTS
The target in test [6] is Ca^2+ Channel Verapamil Site. Briefly: In vitro radioligand binding assay, Ca2+ channel verapamil site.
Test [7] deals with T4, recombinant human Dopamine (DA) transporter (Homo sapiens, UniProt Q01959).
T4 construct: expressed in transfected cells
T4 sequence (Q01959 whole entry): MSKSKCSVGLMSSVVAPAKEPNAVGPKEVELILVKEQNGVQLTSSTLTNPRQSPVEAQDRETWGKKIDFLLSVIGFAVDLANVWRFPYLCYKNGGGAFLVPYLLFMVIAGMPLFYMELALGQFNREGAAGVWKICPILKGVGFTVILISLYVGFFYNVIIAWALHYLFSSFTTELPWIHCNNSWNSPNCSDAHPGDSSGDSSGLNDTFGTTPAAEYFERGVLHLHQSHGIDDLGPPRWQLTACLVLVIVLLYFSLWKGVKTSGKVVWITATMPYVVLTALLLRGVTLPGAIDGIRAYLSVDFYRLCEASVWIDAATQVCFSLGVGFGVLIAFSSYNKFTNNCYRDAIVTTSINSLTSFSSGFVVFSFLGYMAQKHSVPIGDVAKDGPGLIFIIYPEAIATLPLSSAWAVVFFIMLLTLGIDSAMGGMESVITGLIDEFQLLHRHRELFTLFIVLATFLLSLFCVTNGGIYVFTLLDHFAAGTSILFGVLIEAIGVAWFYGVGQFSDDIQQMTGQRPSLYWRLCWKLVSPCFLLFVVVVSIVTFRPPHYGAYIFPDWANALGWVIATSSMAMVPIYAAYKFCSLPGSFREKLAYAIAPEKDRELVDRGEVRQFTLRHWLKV
Kind of test: Functional uptake of DA into cells expressing recombinant human transporters. To be noted: read-out: IC50 inhibition of functional uptake in human transporters, Dopamine (DA). The class given is cell-based.

The target in test [8] is T5, recombinant human Norepinephrine (NE) transporter (Homo sapiens, UniProt P23975).
T5 construct: expressed in transfected cells
T5 sequence (P23975 whole entry): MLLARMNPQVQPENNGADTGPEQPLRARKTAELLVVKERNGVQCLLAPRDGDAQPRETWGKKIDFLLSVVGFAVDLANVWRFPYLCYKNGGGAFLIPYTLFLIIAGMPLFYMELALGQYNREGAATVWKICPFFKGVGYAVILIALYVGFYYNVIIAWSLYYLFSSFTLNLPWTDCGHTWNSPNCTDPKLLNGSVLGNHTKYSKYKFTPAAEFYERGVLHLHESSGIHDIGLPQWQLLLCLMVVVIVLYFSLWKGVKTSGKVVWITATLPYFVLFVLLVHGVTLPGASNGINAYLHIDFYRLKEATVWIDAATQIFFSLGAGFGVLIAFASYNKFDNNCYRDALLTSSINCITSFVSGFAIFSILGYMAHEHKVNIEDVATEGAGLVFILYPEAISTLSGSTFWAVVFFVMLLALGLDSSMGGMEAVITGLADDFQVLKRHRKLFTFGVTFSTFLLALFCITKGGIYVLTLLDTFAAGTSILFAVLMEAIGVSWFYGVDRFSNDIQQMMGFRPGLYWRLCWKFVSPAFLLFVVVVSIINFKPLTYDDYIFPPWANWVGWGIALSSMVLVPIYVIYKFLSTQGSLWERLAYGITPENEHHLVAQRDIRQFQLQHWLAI
Briefly: Functional uptake of NE into cells expressing recombinant human transporters. The conditions noted are these: read-out: IC50 inhibition of functional uptake in human transporters, Norepinephrine (NE). The class given is cell-based.

[9] abbreviates: 30 mg/kg p.o. 60 min before the test.
Setting [10] is: 128 mg/kg p.o. 60 min before the test.

One may read the IC50 as the point on the concentration scale where inhibition reaches its midpoint. One may read the Ki as the equilibrium dissociation constant of an inhibitor or competing ligand from its target.

T2 sequence (Q63380 1-617): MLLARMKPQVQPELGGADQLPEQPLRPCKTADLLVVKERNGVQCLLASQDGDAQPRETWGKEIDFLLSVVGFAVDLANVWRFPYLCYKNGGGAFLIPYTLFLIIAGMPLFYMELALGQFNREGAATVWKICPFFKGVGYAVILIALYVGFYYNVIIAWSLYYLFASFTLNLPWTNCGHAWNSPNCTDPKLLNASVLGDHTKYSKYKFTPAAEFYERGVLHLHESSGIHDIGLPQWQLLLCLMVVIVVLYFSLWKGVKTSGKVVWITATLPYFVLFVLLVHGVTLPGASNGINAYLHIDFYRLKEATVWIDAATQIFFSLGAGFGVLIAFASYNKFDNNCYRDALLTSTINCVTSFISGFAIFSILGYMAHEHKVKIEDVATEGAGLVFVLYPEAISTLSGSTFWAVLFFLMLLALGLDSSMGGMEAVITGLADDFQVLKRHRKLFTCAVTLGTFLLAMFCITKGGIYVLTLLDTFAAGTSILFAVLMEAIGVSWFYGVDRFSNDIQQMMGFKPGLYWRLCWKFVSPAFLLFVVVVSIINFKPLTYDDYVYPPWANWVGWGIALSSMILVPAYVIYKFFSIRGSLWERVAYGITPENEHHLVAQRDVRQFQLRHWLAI

As to `CNCC[C@H](Oc1cccc2ccccc12)c1cccs1` [Duloxetine, reference compound], the “NUMBER OF FLINCHES (20 to 35 min after formalin), mean ± s.e.m.” value in the test with rats [1] (setting [9]) is on record as 71.4 ± 17.2NS. Besides, in the test with rats [1] (setting [9]), the “NUMBER OF FLINCHES, % change from control” value is given as −20%. The “Mechanical Hyperalgesia, Paw Pressure Threshold (Mean ± SEM)” value was 153 ± 9 g in the test on Rat SNL Model [2] (30 mg/kg PO, 0 h (Baseline)); 306 ± 30 g with Rat SNL Model [2] (30 mg/kg PO, 1 h); 345 ± 22 g with Rat SNL Model [2] (30 mg/kg PO, 2 h); 330 ± 25 g in the test with Rat SNL Model [2] (30 mg/kg PO, 4 h). Moreover, the “Mechanical Allodynia, Paw Withdrawal Threshold (Mean ± SEM)” value is 2.6 ± 0.2 g in the test on Rat SNL Model [3] (30 mg/kg PO, 0 h (Baseline)); 7.0 ± 0.5 g with Rat SNL Model [3] (30 mg/kg PO, 1 h); 7.9 ± 0.6 g with Rat SNL Model [3] (30 mg/kg PO, 2 h); 8.1 ± 0.6 g in the test on Rat SNL Model [3] (30 mg/kg PO, 4 h). In the test with rats [4] (30 mg/kg PO), the “Number of Flinches, Acute Phase (Mean ± SEM)” value was 168 ± 24. In addition, the “Number of Flinches, Late Phase (Mean ± SEM)” value with rats [4] (30 mg/kg PO) was determined as 803 ± 112.
Consider `C[N+]1(C)CCC(OC(=O)C(c2ccccc2)c2ccccc2)CC1.[I-]` [Compound 4-DAMP, 4-DAMP, reference compound], for which, on M3 receptor, the pA2 result was “pA2 = 9.2”. Moreover, on M3 receptor (read-out: IC50 for inhibition of carbachol-induced contraction of the Guinea Pig ileum), the IC50 is 0.033 µM.
As for `NCC1(CC(=O)O)CCCCC1` [Gabapentin, reference compound], the “Mechanical Hyperalgesia, Paw Pressure Threshold (Mean ± SEM)” value in the test with Rat SNL Model [2] (100 mg/kg PO, 0 h (Baseline)) turned out to be 135 ± 20 g; in the test on Rat SNL Model [2] (100 mg/kg PO, 1 h), 219 ± 32 g; with Rat SNL Model [2] (100 mg/kg PO, 2 h), 236 ± 29 g; in the test on Rat SNL Model [2] (100 mg/kg PO, 4 h), 255 ± 29 g. The “Mechanical Allodynia, Paw Withdrawal Threshold (Mean ± SEM)” value with Rat SNL Model [3] (100 mg/kg PO, 0 h (Baseline)) is listed as 2.7 ± 0.1 g; in the test on Rat SNL Model [3] (100 mg/kg PO, 1 h), 6.6 ± 0.4 g; in the test with Rat SNL Model [3] (100 mg/kg PO, 2 h), 9.8 ± 0.5 g; in the test with Rat SNL Model [3] (100 mg/kg PO, 4 h) it was 6.2 ± 0.4 g.
In the case of `CN1CC[C@]23c4c5ccc(O)c4O[C@H]2[C@@H](O)C=C[C@H]3[C@H]1C5` [Morphine, reference compound], in the test with rats [1] (setting [10]), the “NUMBER OF FLINCHES (20 to 35 min after formalin), mean ± s.e.m.” value turned out to be 0.0 ± 0.0 and the “NUMBER OF FLINCHES, % change from control” value is −100%. For the same molecule, in the test with rats [4] (100 mg/kg SC), the “Number of Flinches, Acute Phase (Mean ± SEM)” value is recorded as 36 ± 9 and the “Number of Flinches, Late Phase (Mean ± SEM)” value is listed as 32 ± 13.
Turning to `N[C@@H]1CC[C@@H](c2ccc(Cl)c(Cl)c2)c2ccccc21` (racemic) [1:1 mixture of Compounds P & Q, trans-4-(3,4-dichlorophenyl)-1,2,3,4-tetrahydro-1-napthalenamine], the concentration for half-maximal inhibition (IC50) against Dopamine (DA) uptake is 0.0071 µM; in test [5] it was 0.0088 µM.
On to `CNCCCN1c2ccccc2CCc2ccccc21` [Desipramine], for which the Ki at M5 is 0.47 µM; at Na^+ Channel Site 2 it was 0.91 µM; on 5-HT1B, 2.7 µM; in [6] it was 0.31 µM.
In the case of `CC(NC(C)(C)C)C(=O)c1cccc(Cl)c1` (centres unmarked) [Bupropion, reference compound], the values for the IC50 (on Dopamine (DA) uptake; in test [5]) were 0.294 µM and 0.611 µM, respectively.
As to `N[C@H]1CC[C@H](c2ccc(Cl)c(Cl)c2)c2ccccc21` [Compound Q, (1S,4R)-trans 4-(3,4-dichlorophenyl)-1,2,3,4-tetrahydro-1-napthalenamine], the half-inhibitory concentration (IC50) stood at 0.019 µM against Dopamine (DA) uptake, 0.0144 µM in test [7], 0.035 µM in test [5] and 0.0165 µM in test [8].
